Columns and labels:
[1] = system: TILs from eight melanoma patients; test: Intracellular staining for IFNγ and TNFα release in melanoma TILs; type: cell-based, human; conditions: for IFNγ or TNFα release from CD8+ T cells: TILs; for IFNγ or TNFα release from CD8+ T cells / IFNγ release from CD4+ T cells: 5 h peptide stimulation; for IFNγ release from CD4+ T cells: one of the TIL cultures, FIG. 10A
Protocol: Flow cytometry analysis was performed on a FACSCantoTM II (BD Biosciences, San Jose CA, USA). Intracellular staining of cell cultures was performed after the cells were stimulated with 20-mere peptides for 5 hours or 30-mere peptides for 8h (BD GolgiPlugTM cat. 555029, was added after the first hour). The cells were then stained for surface markers, then washed and permeabilized by using Fixation/Permeabilization and Permeabilization Buffer (eBioscience, cat. 00-5123-43), according to manufacturer's instructions. Antibodies used: IFNγ-APC (cat. 341117), TNFα-BV421 (cat. 562783), CD4-FITC (cat. 347413), CD8-PerCP (cat. 345774) (all from BD Biosciences). Dead cells were stained using FVS510 (564406, BD Biosciences) according to manufacturer's instructions. To investigate the potential presence of arginase-specific T cells among tumor-infiltrating lymphocytes in cancer, we screened TILs from eight melanoma patients for responses against arginase-1 derived peptides. To this end, we performed intracellular staining for IFNγ and TNFα release in response to peptide stimulation. TILs were thawed and rested overnight without IL-2, and then stimulated for 5 h with three hot-spot immunogenic region 20-mer peptides (peptides labelled by reference to start and end position): […]-200). […] The percentage of IFNγ-producing cells was higher for […]-190) and […]-200) compared to […]-180), and the response against […]-200) was almost twice that against […]-180).

[2] = system: CT26.WT colon cancer cells; test: Tumor vaccination of Balb/c mice bearing CT26.WT tumors; type: in vivo, mouse; conditions: for tumor growth relative to vaccination with control peptide: vaccination day6 and day 13, FIG. 16
[3] = system: peripheral blood mononuclear cells (PBMC); test: IFN-gamma ELISPOT secretion assay on PBMC (Example 1); type: cell-based, human; conditions: for immune responses against overlapping 20mer peptides: PBMC from three cancer patients, FIG. 3
C57BL/6 and Balb/c mice = test: Peptide vaccination of mice and IFNgamma ELISPOT of spleen or dLN cells; type: in vivo, mouse; conditions: 100 μg peptide s.c. day0 and day7
Protocol: Animals were vaccinated subcutaneously with 100 μg peptide in DMSO/H2O in a 1:1 emulsion with incomplete Freund's adjuvant (IFA) or montanide. IFA+DMSO/H2O served as a control vaccine. Vaccinations were carried out on day0 and day7. For subsequent analysis of the immune response to specific peptides, mice were sacrificed on day 14 and spleen and draining lymph nodes (dLNs) were harvested.
Murine immune cells were subjected to ELISPOT analysis. Single cell suspension was prepared from spleen or dLNs by passage through a cell strainer. After lysis of red blood cells, 0.9×10E6 cells/well were seeded into ELISPOT plates coated with anti-IFNgamma antibody. Peptide of interest was added to designated wells and cells were incubated o/n with peptide. The next day, cells were removed, plates washed and incubated with biotinylated detection antibody. Finally, after addition of Streptavidin-ALP and substrate visible spots appear. Each spot corresponds to an individual IFNgamma producing cell. Plates were analysed in an Immunospot analyser and plotted as spots/0.9×10E6 cells minus background (i.e. minus number of spots in corresponding unstimulated (no peptide) wells).

[4] = system: PBMCs from healthy donors or cancer patients; test: IFNγ ELISPOT on PBMCs after one week peptide and IL-2 stimulation (Example 2); type: cell-based, human; conditions: for spontaneous IFNγ ELISPOT responses against 20-mer library peptides: cancer (melanoma) patient PBMCs, FIG. 9A
Protocol: PBMCs from healthy donors or cancer patients were stimulated with 80 μg of arginase-derived peptides and 120 U/ml IL-2 (Peprotech, London, UK, cat. 200-02) for a week. 4-6×10^5 PBMCs were then placed in the bottom of ELISPOT plate (nitrocellulose bottomed 96-well plates by MultiScreen MAIP […]; Millipore, cat. MSIPN4W50) pre-coated with IFN-y capture Ab (Mabtech, cat. 3420-3-1000) and 1-10 μg of arginase derived peptides were added. PBMCs from each patient and donors were set up in duplicates or triplicates for peptide and control stimulations. Cells were incubated in ELISPOT plates in the presence of an antigen for 14-16 hours after which they are washed off and secondary biotinylated Ab (Mabtech, cat. 3420-6-1000) was added. After 2 h incubation unbound secondary antibody was washed off and streptavidin conjugated alkaline phosphatase (AP) (Mabtech, cat. 3310-10) was added for 1 h. Next, unbound conjugated enzyme is washed off and the assay is developed by adding BCIP/NBT substrate (Mabtech, cat. 3650-10). Developed ELISPOT plates were analysed on CTL ImmunoSpot S6 Ultimate-V analyzer using Immunospot software v5.1. Responses were calculated as the difference between average numbers of spots in wells stimulated with Arginase-1 peptides and control wells. We divided the entire arginase-1 protein sequence into overlapping 20-amino-acid-long peptides, generating a library of 31 peptides covering the whole sequence (SEQ ID NOs 18-48)). Each peptide in the library overlapped with the first 10 amino acids of the following peptide. Using this arginase peptide library and the IFNγ ELISPOT assay, we next screened PBMCs from melanoma patients and healthy donors for spontaneous responses (FIGS. 9A and 9B). The PBMCs were stimulated for one week with a pool of 3-4 adjacent 20-mer arginase library peptides and low-dose IL-2 (120 U/mL). They were then set up for an IFNγ ELISPOT assay to screen for responses against each 20-mer peptide separately. […] Among these overlapping peptides, […]-200), and Arg(191-210) spanned a 50-amino-acid-long region that was deemed a hot-spot region since nearly all patients harbored a response against one or more of these peptides (FIG. 9A). The selected eight peptides were further used to screen for spontaneous immune responses against arginase-1 in PBMCs from eight healthy donors using IFNγ ELISPOT. […] Since we most frequently observed responses against arginase-1 peptides from the hot-spot region, we next analyzed whether longer peptides covering the same sequence could be used instead of four 20-mers. […] We then divided the arginase-1 hot-spot region into two 30-mer peptides that overlapped by 10 amino acids (peptides labelled by reference to start and end position): […]-190) and […]-210). These 30-mer peptides were used to check for responses in selected PBMCs from cancer patients and healthy donors, which had previously shown responses against the 20-mer hot-spot peptides. The PBMCs were stimulated for one week with either […]-190) or […]-210) in the presence of IL-2, and were then used in IFNγ ELISPOT.

[5] = system: arginase-specific CD4+ T-cell culture; test: Recognition by arginase-specific CD4+ T-cell culture (ArgShort-stimulated); type: cell-based, human; conditions: IFNγ ELISPOT and intracellular staining; FIG. 11C
Protocol: PBMCs from healthy donors or cancer patients were stimulated with 80 μg of arginase-derived peptides and 120 U/ml IL-2 (Peprotech, London, UK, cat. 200-02) for a week. 4-6×10^5 PBMCs were then placed in the bottom of ELISPOT plate (nitrocellulose bottomed 96-well plates by MultiScreen MAIP N45; Millipore, cat. MSIPN4W50) pre-coated with IFN-y capture Ab (Mabtech, cat. 3420-3-1000) and 1-10 μg of arginase derived peptides were added. PBMCs from each patient and donors were set up in duplicates or triplicates for peptide and control stimulations. Cells were incubated in ELISPOT plates in the presence of an antigen for 14-16 hours after which they are washed off and secondary biotinylated Ab (Mabtech, cat. 3420-6-1000) was added. After 2 h incubation unbound secondary antibody was washed off and streptavidin conjugated alkaline phosphatase (AP) (Mabtech, cat. 3310-10) was added for 1 h. Next, unbound conjugated enzyme is washed off and the assay is developed by adding BCIP/NBT substrate (Mabtech, cat. 3650-10). Developed ELISPOT plates were analysed on CTL ImmunoSpot S6 Ultimate-V analyzer using Immunospot software v5.1. Responses were calculated as the difference between average numbers of spots in wells stimulated with Arginase-1 peptides and control wells.
Arginase-specific T cell culture were established by stimulation of cancer patient PBMC with irradiated ArgShort (SEQ ID NO 9) peptide-loaded autologous DC or PBMCs. The following day IL-7 and IL-12 (PeproTech, London, UK, cat. 200-07-10 and 200-12) were added. Stimulation of the cultures were carried out every 8 days with ArgShort peptide loaded irradiated autologous DC followed by ArgShort peptide-loaded irradiated autologous PBMC. The day after peptide stimulation IL-2 […]. After 5 stimulations arginase-specific T cells were enriched using TNF-α cell enrichment kit (MiltenyiBiotec, cat. 130-091-269).
Flow cytometry analysis was performed on a FACSCanto™ II (BD Biosciences, San Jose CA, USA). […]

[6] = system: T2-cells loaded with peptide; test: 51Cr-release assay for CTL-mediated cytotoxicity; type: cell-based, human; conditions: standard chromium release assay; FIG. 5
Protocol: Conventional ^51Cr-release assays for CTL-mediated cytotoxicity were carried out as described elsewhere. Target cells were T2-cells (ATCC), HLA-A2^+ melanoma cell lines (FM3 and FM93)
In this experiment Arginase specific T cells were incubated 4 h with either Cr-labeled melanoma cell lines FM3 or FM93 at different effector:target ratios. Both cell lines express intracellular Arginase.

[7] = CD4+ T cells in TILs, 5 h stimulation

“DVDPGEHYILKTLGIKYFSM (Peptide frgment of human Arginase 1) [Arg1-19, positions 181-200 of human Arginase 1]” was tested, and the “percentage of IFNγ-producing cells compared to Arg(161-180)” value [1, 7] was “higher”, the “response relative to that against Arg(161-180)” value [1, 7] was “almost twice that against Arg(161-180)” and the “IFNγ or TNFα release from CD8+ T cells” value [1] was “No IFNγ or TNFα release was observed”. For the same sequence, the “IFNγ release from CD4+ T cells” value [1] was “IFNγ was released from CD4+ T cells”, the “size of the tumor growth effect among the tested peptides” value [2] was “most noticeable” and the “tumor growth relative to vaccination with control peptide” value (“tumor growth relative to vaccination” for short) [2] was “inhibit tumor growth”. For the same sequence, the “immune responses against overlapping 20mer peptides” value [3] was “Frequent immune responses were detected”, the “immunogenicity (peptide specific IFNgamma ELISPOT response)” value (shortened to “immunogenicity”) (C57BL/6 and Balb/c mice; Balb/c mice, FIG. 15) was “immunogenic” and the “immunogenicity” value (C57BL/6 and Balb/c mice; C57BL/6 mice, FIG. 14) was “immunogenic”. The “spontaneous IFNγ ELISPOT responses against 20-mer library peptides” value [4] was “highest and most abundant responses”.
In the case of “GFSWVTPCISAKDIVYIGLR (Peptide fragment of human Arginase 1) [Arg1-17, positions 161-180 of human Arginase 1; murine region identical]”, the “IFNγ or TNFα release from CD8+ T cells” value [1] is reported as “No IFNγ or TNFα release was observed”, the “IFNγ release from CD4+ T cells” value [1] is reported as “IFNγ was released from CD4+ T cells” and the “tumor growth relative to vaccination” value [2] is reported as “inhibit tumor growth”. For the same sequence, the “immune responses against overlapping 20mer peptides” value [3] was “Frequent immune responses were detected”, the “immunogenicity” value (C57BL/6 and Balb/c mice; Balb/c mice, FIG. 15) was “immunogenic” and the “immunogenicity” value (C57BL/6 and Balb/c mice; C57BL/6 mice, FIG. 14) was “immunogenic”. The “spontaneous IFNγ ELISPOT responses against 20-mer library peptides” value [4] was “highest and most abundant responses”.
“GFSWVTPCISAKDIVYIGLRDVDPGEHYILKTLGIKYFSMTEVDRLGIGK (Peptide fragment of human Arginase 1) [50-mer peptide, 50-mer covering the entire hot-spot region, positions 161-210 of human Arginase 1]” was tested, and the “recognition by T-cell culture specific against the minimal arginase epitope” value [5] was “not recognized” and the “IFNγ ELISPOT responses against longer hot-spot peptides” value ([4]; selected PBMCs from cancer patients and healthy donors, one week stimulation with IL-2, FIG. 10B, 10C) was “lower responses compared to the 20-mer peptides”.
With “IVYIGLRDV (Peptide fragment of human Arginase 1) [Arg8, positions 174-182 of human Arginase 1]” the “killing of peptide-loaded target cells by CD8 positive culture” value [6] was “can kill target cells loaded with Arg8”, the “specific T-cell responses against Arg-derived peptide” value ([3]; IFN-gamma ELISPOT, PBMC from six melanoma patients, FIG. 1) was “Strong responses” and the “Immune responses against Arg 8 peptide” value ([3]; PBMC from 6 cancer patients, specific cells/3×10e5 cells, FIG. 2) was “Very strong responses were frequently detected”.
“KDIVYIGL (Peptide fragment of human Arginase 1) [mARG1, positions 172-179 of human Arginase 1; murine region identical]” was tested, and the “immunogenicity” value (C57BL/6 and Balb/c mice; C57BL/6 mice, FIG. 14) was “immunogenic”.
“KTLGIKYFSMTEVDKLGIGK (Peptide fragment of murine Arginase 1) [mARG20, positions 191-210 of murine Arginase 1]” was tested, and the “size of the tumor growth effect among the tested peptides” value [2] was “most noticeable”, the “tumor growth relative to vaccination” value [2] was “inhibit tumor growth” and the “immunogenicity” value (C57BL/6 and Balb/c mice; Balb/c mice, FIG. 15) was “immunogenic”. The “immunogenicity” value (C57BL/6 and Balb/c mice; C57BL/6 mice, FIG. 14) was “immunogenic”.
In the case of “LGIKYFSM (Peptide fragment of human Arginase 1) [mARG2, positions 193-200 of human Arginase 1; murine region identical]”, the “immunogenicity” value (C57BL/6 and Balb/c mice; Balb/c mice, FIG. 15) is reported as “not immunogenic” and the “immunogenicity” value (C57BL/6 and Balb/c mice; C57BL/6 mice, FIG. 14) is reported as “not immunogenic”.
